Assay results as given in patent US6008356A, “Pharmaceutically available protoberberine salts derivatives, and protoberberine salts derivatives, and protoberberine derivatives and salts thereof” (priority 1998, dated 1999).
Values after ≈ are worked out from the molar mass of the structure shown. Like-named read-outs stand apart in the source and are kept apart here.

What was measured:
[1] = tested on: C. albicans OY 003; assay: MIC; assay type: cell-based, Candida albicans
[2] = tested on: C. albicans IFO 1385; assay: MIC; assay type: cell-based, Candida albicans
[3] = tested on: C. albicans ATCC 28838; assay: MIC; assay type: cell-based, Candida albicans
[4] = tested on: C. albicans KCTC 1940; assay: MIC; assay type: cell-based, Candida albicans
[5] = tested on: C. albicans ATCC 11651; assay: MIC; assay type: cell-based, Candida albicans
[6] = tested on: E. floccosum; assay: MIC; assay type: cell-based, Epidermophyton floccosum
[7] = tested on: C. albicans OY 019; assay: MIC; assay type: cell-based, Candida albicans
[8] = tested on: C. glabrata; assay: MIC; assay type: cell-based; settings: Nakaseomyces glabratus
[9] = tested on: C. albicans U.K.; assay: MIC; assay type: cell-based; settings: Candida albicans
[10] = tested on: C. parapsilosis; assay: MIC; assay type: cell-based; settings: Lodderomyces parapsilosis
[11] = tested on: C. albicans ATCC 10231; assay: MIC; assay type: cell-based; settings: Candida albicans, ATCC10231
[12] = tested on: C. glulliermendi; assay: MIC; assay type: cell-based
[13] = tested on: C. krusei; assay: MIC; assay type: cell-based; settings: Pichia kudriavzevii
[14] = tested on: Epidermophyton floccosum; assay: Antifungal efficacy of creamy formulation against local fungal skin infection; assay type: in vivo, mouse (SKH/1, hairless, male); settings: topical
Experimental: Specific pathogen free SKH/1 male mouse(Hairless) of which weight is 30-35 g and age is 5 weeks, was reared with sterilized water and feed for 12 night/day in the condition of 21-23° C. and of 50% relative humidity. Five mice were allocated by each group. After skin infection, each mouse was taken in separate cage. The strain of microorganism for infection(Epidermophyton floccosum) was cultivated on a flat medium of SDA(Sabouraud Dextrose Agar) for 5-7 days and after confirmation of macrocomidia, 3 ml of RPMI (Rosewell Park Memorial Institute) 1640 media per each flat medium was added thereto and then scraped well using loop to remove hyphae from media. The floating liquid was suspended briefly and then diluted with RPMI 1640 media to adjust the concentration of hyphae to 2×10^6 CFU/ml. Mouse was anesthetized and marked on back site(lumbosacral area) in a shape of circle of which diameter is 1.5 cm. Then, the inner part of marked skin was scratched with sand paper. The scratched part was covered with a filter paper to preserve inoculated microorganism for a long time and thereby stimulating the skin continuously. 0.2 ml of fungus solution of which concentration is adjusted as described above, was inoculated between the skin and filter paper. 5 Days after the inoculation, the filter paper was removed and the infection of skin was examined. The test formulations, 0.5% creamy formulations of the compounds Nos. 62 and 85, 1.0% creamy formulation of Terbinafine(Lamisile cream) and a placebo was applied on the infected areas in a same amount once a day for 5 days. The clinical evaluation on the change of the infected area in 5 days after the inoculation was performed and expressed numerically from 0 to 4. The daily change of the infected area was checked every day. The result of each group was compared with each other.
1: Mild erythema or small number of skin eruption
2: Well-demarcated erythema with scales or mild skin eruption of infected area
3: Wide area of marked skin eruption, scales, swelling or severe skin eruption with partial swelling and scales
4: The same as those of control, or severe skin eruption in entire lesion
The result was calculated as follows;
T: Average score of clinical evaluation in drug treated area
K: Average score of clinical evaluation in placebo control group
Moreover, the antifungal efficacies of the 0.5% creamy formulation of the compounds Nos. 29, 35, 60, 62, 63 and 85, and 1% creamy formulation of Terbinafme (Lamisil cream), which are measured by applying the above formulations on the skin infected with Epidermophyton floccosum of mouse which is the standard animal for the test of local fungal skin infection, i.e, Specific Pathogen Free SKH/1, are described in the following Table 4.

[15] = Candida albicans, OY003, C. albicans OY 003, read-out: MIC
[16] = Candida albicans, IFO1385, C. albicans IFO 1385, read-out: MIC
[17] = Candida albicans, ATCC28838, C. albicans ATCC 28838, read-out: MIC
[18] = Candida albicans, KCTC1940, C. albicans KCTC 1940, read-out: MIC
[19] = Candida albicans, ATCC11651, C. albicans ATCC 11651, read-out: MIC
[20] = Candida albicans, OY019, C. albicans OY 019, read-out: MIC

## COc1ccc2c(Cc3ccc(C(C)(C)C)cc3)c3[n+](c(O)c2c1OC)CCc1cc2c(cc1-3)OCO2.[Cl-] [compound 64, 8-hydroxy-13-(4-t-butylbenzyl) berberine chloride]
[1]; C. albicans OY 003
  MIC: 6.25 µg/mL
[2]; C. albicans IFO 1385
  MIC: 25 µg/mL
[3]; C. albicans ATCC 28838
  MIC: 3.125 µg/mL
[4]; C. albicans KCTC 1940
  MIC: 12.5 µg/mL
[5]; C. albicans ATCC 11651
  MIC: 3.125 µg/mL
[6]; E. floccosum
  MIC: > 100 µg/mL
[7]; C. albicans OY 019
  MIC: 0.4 µg/mL

## CCC(C)n1ncn(-c2ccc(N3CCN(c4ccc(OCC5COC(Cn6cncn6)(c6ccc(Cl)cc6Cl)O5)cc4)CC3)cc2)c1=O (stereo not shown) [Itraconazole, reference compound]
[1]; Candida albicans, OY003
  MIC: > 100 µg/mL
[2]; Candida albicans, IFO1385
  MIC: > 100 µg/mL
[3]; Candida albicans, ATCC28838
  MIC: > 100 µg/mL
[4]; Candida albicans, KCTC1940
  MIC: > 100 µg/mL
[5]; Candida albicans, ATCC11651
  MIC: > 100 µg/mL
[6]; Epidermophyton floccosum
  MIC: 50 µg/mL (≈ 70.9 µM)
[7]; Candida albicans, OY019
  MIC: > 100 µg/mL

## Clc1ccc(COC(Cn2ccnc2)c2ccc(Cl)cc2Cl)c(Cl)c1 (stereo not shown) [Miconazole, reference compound]
[8]
  MIC: > 100 µg/mL
[1]; Candida albicans, OY003
  MIC: 1.56 µg/mL (≈ 3.75 µM)
[9]
  MIC: > 100 µg/mL
[2]; Candida albicans, IFO1385
  MIC: 3.12 µg/mL (≈ 7.51 µM)
[3]; Candida albicans, ATCC28838
  MIC: 0.78 µg/mL (≈ 1.87 µM)
[4]; Candida albicans, KCTC1940
  MIC: 1.56 µg/mL (≈ 3.75 µM)
[10]
  MIC: 3.12 µg/mL (≈ 7.51 µM)
[5]; Candida albicans, ATCC11651
  MIC: 3.12 µg/mL (≈ 7.51 µM)
[11]
  MIC: 6.25 µg/mL (≈ 15 µM)
[12]
  MIC: 3.12 µg/mL (≈ 7.51 µM)
[6]; Epidermophyton floccosum
  MIC: 6.25 µg/mL (≈ 15 µM)
[13]
  MIC: 3.12 µg/mL (≈ 7.51 µM)
[7]; Candida albicans, OY019
  MIC: 1.56 µg/mL (≈ 3.75 µM)

## CN(C/C=C/C#CC(C)(C)C)Cc1cccc2ccccc12 [Terbinabin, Terbinafine, reference compound]
[14]; 1.0% cream
  Efficacy (%) 0 day later: 0%
  Efficacy (%) 1 day later: 40.0%
  Efficacy (%) 2 day later: 57.9%
  Efficacy (%) 3 day later: 68.4%
  Efficacy (%) 4 day later: 70.2%
  Efficacy (%) 5 day later: 71.4%
  Efficacy (%) 6 day later: 73.4%
  Efficacy (%) 7 day later: 75.7%

## COc1cc2c(cc1OC)-c1c(Cc3ccc(C(C)(C)C)cc3)c3ccc(OC)c(OC)c3c[n+]1CC2 [compound 77, 13-(4-t-butylbenzyl)palmatine iodide]
[1]; [15]
  MIC: 0.78 µg/mL
[2]; [16]
  MIC: 3.12 µg/mL
[3]; [17]
  MIC: 0.78 µg/mL
[4]; [18]
  MIC: 1.56 µg/mL
[5]; [19]
  MIC: 0.78 µg/mL
[7]; [20]
  MIC: 1.56 µg/mL

## COc1ccc2c(Cc3cccc(Oc4ccccc4)c3)c3[n+](cc2c1OC)CCc1cc2c(cc1-3)OCO2 [compound 58, 13-(3-phenoxybenzyl)berberine chloride]
[1]; [15]
  MIC: 6.25 µg/mL
[2]; [16]
  MIC: 25 µg/mL
[3]; [17]
  MIC: 3.12 µg/mL
[4]; [18]
  MIC: 12.5 µg/mL
[5]; [19]
  MIC: 12.5 µg/mL
[7]; [20]
  MIC: 12.5 µg/mL

## COc1cc(Cc2c3[n+](cc4c(OC)c(OC)ccc24)CCc2cc4c(cc2-3)OCO4)cc(OC)c1OC [compound 29, 13-(3,4,5-trimethoxybenzyl)berberine chloride]
[1]; [15]
  MIC: 6.25 µg/mL
[2]; [16]
  MIC: 25 µg/mL
[14]; 0.5% cream
  Efficacy (%) 0 day later: 0%
  Efficacy (%) 1 day later: 30.0%
  Efficacy (%) 2 day later: 33.4%
  Efficacy (%) 3 day later: 34.6%
  Efficacy (%) 4 day later: 48.0%
  Efficacy (%) 5 day later: 56.4%
  Efficacy (%) 6 day later: 63.0%
  Efficacy (%) 7 day later: 65.8%
[3]; [17]
  MIC: 3.12 µg/mL
[4]; [18]
  MIC: 1.56 µg/mL
[5]; [19]
  MIC: 1.56 µg/mL
[7]; [20]
  MIC: 6.25 µg/mL

## COc1ccc2c(Cc3ccc(-c4ccccc4)cc3)c3[n+](cc2c1OC)CCc1cc2c(cc1-3)OCO2 [compound 35, 13-(4-phenylbenzyl)berberine chloride]
[8]; C. glabrata, read-out: MIC
  MIC: > 100 µg/mL
[1]; [15]
  MIC: 0.78 µg/mL
[9]; C. albicans U.K., read-out: MIC
  MIC: 12.5 µg/mL
[2]; [16]
  MIC: 6.25 µg/mL
[14]; 0.5% cream
  Efficacy (%) 0 day later: 0%
  Efficacy (%) 1 day later: 36.0%
  Efficacy (%) 2 day later: 57.9%
  Efficacy (%) 3 day later: 68.4%
  Efficacy (%) 4 day later: 72.2%
  Efficacy (%) 5 day later: 74.0%
  Efficacy (%) 6 day later: 75.4%
  Efficacy (%) 7 day later: 76.8%
[3]; [17]
  MIC: 1.56 µg/mL
[4]; [18]
  MIC: 0.78 µg/mL
[10]; C. parapsilosis, read-out: MIC
  MIC: > 100 µg/mL
[5]; [19]
  MIC: 0.78 µg/mL
[11]; C. albicans ATCC 10231, read-out: MIC
  MIC: 6.25 µg/mL
[12]; C. glulliermendi, read-out: MIC
  MIC: 12.5 µg/mL
[6]; Epidermophyton floccosum, E. floccosum, read-out: MIC
  MIC: 12.5 µg/mL
[13]; C. krusei, read-out: MIC
  MIC: 3.12 µg/mL
[7]; [20]
  MIC: 1.56 µg/mL

## C[C@@H]1[C@H](O)[C@@H](C)/C=C/C=C/C=C/C=C/C=C/C=C/C=C/[C@H](O[C@@H]2O[C@H](C)[C@@H](O)[C@H](N)[C@@H]2O)C[C@@H]2O[C@](O)(C[C@@H](O)C[C@@H](O)[C@H](O)CC[C@@H](O)C[C@@H](O)CC(=O)O[C@H]1C)C[C@H](O)[C@H]2C(=O)O [Amphotericin B, reference compound]
[8]
  MIC: 1.56 µg/mL (≈ 1.69 µM)
[1]; Candida albicans, OY003
  MIC: 0.78 µg/mL (≈ 0.844 µM)
[9]
  MIC: 3.12 µg/mL (≈ 3.38 µM)
[2]; Candida albicans, IFO1385
  MIC: 1.56 µg/mL (≈ 1.69 µM)
[3]; Candida albicans, ATCC28838
  MIC: 3.12 µg/mL (≈ 3.38 µM)
[4]; Candida albicans, KCTC1940
  MIC: 0.78 µg/mL (≈ 0.844 µM)
[10]
  MIC: 3.12 µg/mL (≈ 3.38 µM)
[5]; Candida albicans, ATCC11651
  MIC: 1.56 µg/mL (≈ 1.69 µM)
[11]
  MIC: 1.56 µg/mL (≈ 1.69 µM)
[12]
  MIC: 1.56 µg/mL (≈ 1.69 µM)
[6]; Epidermophyton floccosum
  MIC: 12.5 µg/mL (≈ 13.5 µM)
[13]
  MIC: 0.78 µg/mL (≈ 0.844 µM)
[7]; Candida albicans, OY019
  MIC: 0.4 µg/mL (≈ 0.433 µM)

## COc1ccc2c(Cc3ccc(OC(F)(F)F)cc3)c3[n+](cc2c1OC)CCc1cc2c(cc1-3)OCO2 [compound 31, 13-(4-trifluoromethoxybenzyl) berberine chloride]
[1]; [15]
  MIC: 1.56 µg/mL
[2]; [16]
  MIC: 3.12 µg/mL
[3]; [17]
  MIC: 0.78 µg/mL
[4]; [18]
  MIC: 1.56 µg/mL
[5]; [19]
  MIC: 1.56 µg/mL
[7]; [20]
  MIC: 1.56 µg/mL

## COc1ccc2c(Cc3ccc(C)c(C)c3)c3[n+](cc2c1OC)CCc1cc2c(cc1-3)OCO2 [compound 18, 13-(3,4-dimethylbenzyl)berberine chloride]
[1]; [15]
  MIC: 6.25 µg/mL
[2]; [16]
  MIC: 12.5 µg/mL
[3]; [17]
  MIC: 3.12 µg/mL
[4]; [18]
  MIC: 6.25 µg/mL
[5]; [19]
  MIC: 3.12 µg/mL
[7]; [20]
  MIC: 6.25 µg/mL

## C=Cc1ccc(Cc2c3[n+](cc4c(OC)c(OC)ccc24)CCc2cc4c(cc2-3)OCO4)cc1 [compound 60, 13-(4-vinylbenzyl)berberine chloride]
[1]; [15]
  MIC: 6.25 µg/mL
[2]; [16]
  MIC: 25 µg/mL
[14]; 0.5% cream
  Efficacy (%) 0 day later: 0%
  Efficacy (%) 1 day later: 20.0%
  Efficacy (%) 2 day later: 32.0%
  Efficacy (%) 3 day later: 36.0%
  Efficacy (%) 4 day later: 48.6%
  Efficacy (%) 5 day later: 51.5%
  Efficacy (%) 6 day later: 58.6%
  Efficacy (%) 7 day later: 60.5%
[3]; [17]
  MIC: 3.12 µg/mL
[4]; [18]
  MIC: 6.25 µg/mL
[5]; [19]
  MIC: 6.25 µg/mL
[7]; [20]
  MIC: 12.5 µg/mL
